Experimental data: ChEMBL document CHEMBL1201862, “PubChem BioAssay data set” (2004)
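All cell lines were grown in 96-well plates and treated with compound for 48 hours. GI50 marks 50% less growth.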 Calls of active or inactive are those of the source. Rule as the data show it: active = GI50 up to about 1.1 µM and inactive = higher.

What was measured:
Assay in all cases: NCI-60 cell line screen, 48 h
[1] = tested on: BT-549
[2] = tested on: DU-145
[3] = tested on: EKVX
[4] = tested on: HOP-92
[5] = tested on: Hs-578T
[6] = tested on: MDA-MB-231
[7] = tested on: MOLT-4
[8] = tested on: NCI-H460
[9] = tested on: NCI/ADR-RES
[10] = tested on: OVCAR-3
[11] = tested on: SF-539
[12] = tested on: SW-620
[13] = tested on: UACC-257
[14] = tested on: CCRF-CEM
[15] = tested on: MCF7
[16] = tested on: SN12C
[17] = tested on: OVCAR-8

Measured: GI50

Cc1c(/C=N\NC(=S)NCCNC(=S)N/N=C\c2c(C)n(C)n(-c3ccccc3)c2=O)c(=O)n(-c2ccccc2)n1C
inactive: [1] > 100 µM | [2] > 100 µM | [3] > 100 µM | [4] > 100 µM | [5] > 100 µM | [6] 54.8 µM | [7] > 100 µM | [8] > 100 µM | [9] > 100 µM | [10] > 100 µM | [11] > 100 µM | [12] > 100 µM | [13] > 100 µM

Cc1ccc(C(=O)/C(C#N)=C/Nc2c(C)n(C)n(-c3ccccc3)c2=O)cc1
inactive: [1] > 100 µM | [14] > 100 µM | [2] > 100 µM | [3] > 100 µM | [4] 46.2 µM | [5] > 100 µM | [15] > 100 µM | [6] > 100 µM | [7] > 100 µM | [8] > 100 µM | [10] > 100 µM | [11] > 100 µM | [16] > 100 µM | [12] > 100 µM | [13] > 100 µM

CC(C)(C)NC(=O)CCC1C(C(=O)NC(C)(C)C)C2(Cl)C(Cl)=C(Cl)C1(Cl)C2(Cl)Cl (configuration not stated)
inactive: [1] > 100 µM | [14] > 100 µM | [2] > 100 µM | [3] > 100 µM | [5] > 100 µM | [15] > 100 µM | [6] > 100 µM | [7] > 100 µM | [8] > 100 µM | [9] > 100 µM | [10] > 100 µM | [17] > 100 µM | [11] > 100 µM | [16] > 100 µM | [12] > 100 µM | [13] > 100 µM

CN(C)CCNC1=Nc2ccccc2C(=S)N2CSCC12 (configuration not stated)
inactive: [1] > 100 µM | [14] > 100 µM | [2] 74.8 µM | [3] > 100 µM | [5] > 100 µM | [15] > 100 µM | [6] > 100 µM | [7] > 100 µM | [8] > 100 µM | [9] > 100 µM | [10] > 100 µM | [17] > 100 µM | [16] > 100 µM | [12] > 100 µM | [13] > 100 µM

N#Cc1nc(CCCN2C(=O)c3ccccc3C2=O)oc1N
inactive: [1] > 100 µM | [14] > 100 µM | [2] > 100 µM | [3] > 100 µM | [5] > 100 µM | [15] > 100 µM | [6] > 100 µM | [7] > 100 µM | [8] > 100 µM | [9] > 100 µM | [10] > 100 µM | [17] > 100 µM | [11] > 100 µM | [16] > 100 µM | [12] > 100 µM | [13] > 100 µM

CCN(CC)CCCNc1nc(=O)[nH]c(C)c1C(=O)Nc1cccc2cc3ccccc3cc12
inactive: [14] > 100 µM | [2] > 100 µM | [3] > 100 µM | [4] 62.2 µM | [15] > 100 µM | [6] 82.4 µM | [7] > 100 µM | [9] > 100 µM | [10] > 100 µM | [17] > 100 µM | [11] > 100 µM | [16] > 100 µM | [12] > 100 µM | [13] > 100 µM

CN(CC(=O)Nc1ccccc1C(=O)O)c1ccccc1
inactive: [1] > 100 µM | [14] > 100 µM | [2] > 100 µM | [3] > 100 µM | [4] > 100 µM | [5] > 100 µM | [15] > 100 µM | [6] > 100 µM | [7] > 100 µM | [8] > 100 µM | [10] > 100 µM | [17] > 100 µM | [11] > 100 µM | [16] 40.6 µM | [12] 90.2 µM | [13] > 100 µM

CCOC(=O)C1c2[nH]c3ccccc3c2CCN1C(=O)c1ccc(OC)o1 (configuration not stated)
inactive: [14] > 10 µM | [2] > 10 µM | [3] > 10 µM | [4] > 10 µM | [5] > 10 µM | [15] > 10 µM | [6] > 10 µM | [7] > 10 µM | [8] > 10 µM | [9] > 10 µM | [10] > 10 µM | [17] > 10 µM | [11] > 10 µM | [16] > 10 µM | [12] > 10 µM | [13] > 10 µM

CC(C)C(N)C(=O)NC(CCC(=O)NCCCCC(N)C(=O)NCCCNc1ccc([N+](=O)[O-])c2[nH]c3ccccc3c(=O)c12)C(N)=O (configuration not stated)
inactive: [1] 13.7 µM | [14] 34.5 µM | [2] > 100 µM | [3] > 100 µM | [4] 24.4 µM | [6] 41.2 µM | [8] 12.5 µM | [9] 43 µM | [10] > 100 µM | [17] 31.2 µM | [12] 41.6 µM | [13] > 100 µM

OCC(O)C(O)C(O)C(/C=N\Nc1ncnc2ccc(Br)cc12)=N/Nc1ncnc2ccc(Br)cc12 (configuration not stated)
inactive: [2] 5.65 µM | [3] 4.42 µM | [4] 13.8 µM | [5] > 100 µM | [15] 34.4 µM | [6] 2.87 µM | [7] 2.62 µM | [10] 2.72 µM | [17] 4.01 µM | [11] 8.3 µM | [16] 17.9 µM | [12] 6.62 µM | [13] 7.48 µM

CN1C(=O)C(O)C[C@@H]1c1ccc(F)cc1 (some centres not stated)
inactive: [1] > 100 µM | [14] > 100 µM | [2] > 100 µM | [3] > 100 µM | [4] > 100 µM | [15] > 100 µM | [6] > 100 µM | [7] > 100 µM | [10] > 100 µM | [11] > 100 µM | [16] > 100 µM | [13] > 100 µM

O=C(NNc1ccc([N+](=O)[O-])cc1[N+](=O)[O-])/C(O)=C\C(=O)c1ccccc1
inactive: [1] 22.2 µM | [14] 16.9 µM | [2] 16.9 µM | [3] 25.2 µM | [15] 29.4 µM | [6] 23.4 µM | [7] 17.7 µM | [8] 19 µM | [9] 16.3 µM | [17] 18.7 µM | [11] 15.4 µM | [16] 16.5 µM | [12] 16.6 µM | [13] 29 µM

O=C1NCC2(CCNCC2)N1
inactive: [14] > 100 µM | [2] > 100 µM | [3] > 100 µM | [4] > 100 µM | [5] > 100 µM | [15] > 100 µM | [6] > 100 µM | [7] > 100 µM | [8] > 100 µM | [9] > 100 µM | [17] > 100 µM | [11] > 100 µM | [16] > 100 µM | [12] > 100 µM | [13] > 100 µM

COc1cc(C2c3cc4c(cc3OC(NCCO)C2C)OCO4)cc(OC)c1O (configuration not stated)
inactive: [1] 9.53 µM | [2] 9.79 µM | [4] 86.5 µM | [15] 9.29 µM | [6] 7.23 µM | [9] 4.58 µM | [10] 5.2 µM | [17] 19 µM | [11] 13.9 µM | [16] 4.6 µM | [12] 5.53 µM

CC(C(O)c1ccccc1)C(O)(C(F)(F)F)C(F)(F)F (configuration not stated)
inactive: [14] > 100 µM | [2] > 100 µM | [3] > 100 µM | [4] 50.8 µM | [5] > 100 µM | [15] 76.4 µM | [6] > 100 µM | [7] > 100 µM | [8] > 100 µM | [9] > 100 µM | [10] > 100 µM | [17] > 100 µM | [11] > 100 µM | [16] > 100 µM | [12] > 100 µM | [13] > 100 µM

Cc1ccc(/C=C2/N/C(=N\N=C/c3ccccc3)NC2=O)cc1
inactive: [1] 29.9 µM | [2] 55.1 µM | [3] 43.1 µM | [5] 25.8 µM | [15] 28.8 µM | [6] 42.1 µM | [7] 21.9 µM | [8] 31.6 µM | [9] 33.3 µM | [10] 44.8 µM | [17] 42.5 µM | [11] 44.4 µM | [16] 45.7 µM | [12] 41.6 µM | [13] > 100 µM

O=C(C[n+]1ccccc1)N/N=C(\C(=O)NC1=C(Cl)C(=O)c2ccccc2C1=O)c1c(O)c2ccc(O)cc2oc1=O
inactive: [1] 5.14 µM | [14] 4.94 µM | [2] 3.59 µM | [3] 12.9 µM | [4] 14.8 µM | [15] 3.48 µM | [6] 7.73 µM | [7] 11 µM | [8] 2.52 µM | [9] 4.08 µM | [10] 3.37 µM | [17] 3.66 µM | [11] 4.28 µM | [16] 4.44 µM | [12] 3.89 µM | [13] 3.03 µM

O=C1OC(c2ccccc2)=N/C1=C/c1cccs1
inactive: [14] 23.4 µM | [3] > 100 µM | [4] > 100 µM | [5] 87.1 µM | [15] > 100 µM | [7] 14.5 µM | [8] > 100 µM | [9] 38.3 µM | [10] 26.8 µM | [17] 63.1 µM | [11] 27.6 µM | [12] > 100 µM | [13] 65.6 µM

C/C=C1\CC(C(=O)OCC)CCCCCCC1=O (configuration not stated)
inactive: [1] > 100 µM | [14] 19.1 µM | [2] > 100 µM | [3] > 100 µM | [5] > 100 µM | [15] > 100 µM | [6] > 100 µM | [7] > 100 µM | [9] > 100 µM | [17] > 100 µM | [11] > 100 µM | [16] > 100 µM | [12] > 100 µM | [13] > 100 µM
